Patent publication US9365499B2, “9-aminomethyl substituted tetracycline compounds” (KBP Biosciences Co., Ltd., priority 2011, dated 2016)
Values after ≈ are worked out from the molar mass of the structure shown. Where two headings read alike, the source gives them in different places.

Experiments:
[1] = test system: Acinetobacter baumannii; test: antibacterial activity in vitro, agar dilution method; type: cell-based
From the text: (§1) The antibacterial spectrum and in vitro antibacterial activity of the compound of the present invention
(§2) Experimental method: the agar dilution method, with reference to Clinical And Laboratory Standards Institute. Methods for Dilution Antimicrobial Susceptibility Tests for Bacteria That Grow Aerobically; Approved Standard-Seventh Edition. CLSI Document M7-A7. Vol 26, no. 2, Wayne, Pa.: Clinical and Laboratory Standards Institute, 2006.
(§3) Wherein MIC represents the minimum inhibitory concentration, MIC90 represents the 90% inhibitory concentration.

[2] = test system: Escherichia coli; test: as above; type: cell-based
From the text: as §1, §2, §3

[3] = test system: Klebsiella oxytoca; test: as above; type: cell-based; settings: Table 3
From the text: as §1, §2, §3

[4] = test system: Klebsiella pneumoniae; test: as above; type: cell-based
From the text: as §1, §2, §3

[5] = test system: Methicillin-resistant Staphycoccus epidermidis (MRSE); test: as above; type: cell-based; settings: Staphylococcus epidermidis
From the text: as §1, §2, §3

[6] = test system: Methicillin-resistant Staphylococcus aureus (MRSA); test: as above; type: cell-based
From the text: as §1, §2, §3

[7] = test system: Streptococcus pyogenes; test: as above; type: cell-based; settings: Table 2
From the text: as §1, §2, §3

[8] = in vivo; set-up: species or system male SD rats; settings: male, SD, rat, 5 mg/kg
Method: Test animals: male SD rats, weighing 180-280 g, purchased from Beijing Vital River Laboratory Animal Technology Co., Ltd.; animal Certificate of Conformity: SCXK (Beijing) 2006-0009. Six rats were tested for each compound. the compounds of the present invention, prepared in accordance with the methods of above Examples, dissolved in physiological saline. tigecycline, dissolved in physiological saline. Administration of the compounds of the present invention: intravenous bolus injection (iv), dose: 5 mg/kg, administrating volume: 5 mL/kg; gavage (po), dose: 5 mg/kg, administrating volume: 5 mL/kg. Administration of tigecycline: gavage (po), dose: 10 mg/kg, administrating volume: 5 mL/kg. Prior to administration help but water fasting for 16 hours, 4 hours after administration to food. Compound 9: iv blood sampling time point: denoted by 0 min before administration, 5 min, 15 min, 30 min, 1 […] after administration; po blood sampling time point: denoted by 0 min before administration, 5 min, 15 min, 30 min, 1 […] after administration; Compound 20: iv blood sampling time point: 5 min, 15 min, 30 min, 1 […] after administration; po blood sampling time point: 10 min, 30 min, 1 […] after administration; Compound 23: iv blood sampling time point: denoted by 0 min before administration, 5 min, 15 min, 30 min, 1 […] after administration; po blood sampling time point: denoted by 0 min before administration, 5 min, 15 min, 30 min, 1 […] after administration; Tigecycline: iv blood sampling time point: 5 min, 15 min, 30 min, 1 h, 2 h, 4 h, 6 h, 8 h after administration; po blood sampling time point: 10 min, 30 min, 1 […] after administration. Each time point is taken around 100 μl whole blood and placed in a heparinized tube, centrifugated at 8000 rpm/min at 4° C. for 6 minutes in a low-temperature high-speed centrifuge to separate plasma, the resulting plasma was frozen at -80° C. refrigerator. Plasma samples analysis: 20 μl of plasma was taken and added 200 μl of internal standard solution, subjected to vortex for 3 minutes, then to centrifugation at 12,000 rpm/min for 5 minutes. 100 μl of supernatant was taken and analyzed using LC-MS/MS. Formula Absolute Bioavailability F%=[AUC](po)×Dose(iv)/[AUC](iv)×Dose(po)

[9] = test system: Acinetobacter calcoaceticus; test: antibacterial activity in vitro, agar dilution method; type: cell-based; settings: Table 4
From the text: as §1, §2, §3

[10] = test system: Enterococcus faecalis; test: as above; type: cell-based; settings: Table 4
From the text: as §1, §2, §3

[11] = test system: Streptococus agalactiae; test: as above; type: cell-based; settings: Table 4
From the text: as §1, §2, §3

[12] = Table 3, agar dilution, read-out: antibacterial activity MIC, Acinetobacter baumannii
[13] = Table 4, agar dilution, read-out: antibacterial activity MIC, Acinetobacter baumannii

MIC [1, 12] [µg/mL]	MIC ([2]; Table 3) [µg/mL]	MIC [3] [µg/mL]	MIC ([4]; Table 3) [µg/mL]	MIC ([5]; Table 3) [µg/mL]	MIC ([6]; Table 3, agar dilution) [µg/mL]	MIC [1, 13] [µg/mL]	MIC [9] [µg/mL]	MIC [10] [µg/mL]	MIC ([2]; Table 4) [µg/mL]	MIC ([4]; Table 4) [µg/mL]	MIC ([6]; Table 4, agar dilution) [µg/mL]	MIC [11] [µg/mL]	Compound	other results
1 (≈ 1.8 µM)	1 (≈ 1.8 µM)	1 (≈ 1.8 µM)	2 (≈ 3.61 µM)	1 (≈ 1.8 µM)	0.5 (≈ 0.901 µM)	–	–	–	–	–	–	–	CN(C)c1cc(CN2CC(C)(C)C2)c(O)c2c1C[C@H]1C[C@H]3[C@H](N(C)C)C(O)=C(C(N)=O)C(=O)[C@@]3(O)C(O)=C1C2=O [Compound 1, (4S,4aS,5aR,12aS)-9-((3,3-dimethylazetidin-1-yl)methyl)-4,7-bis(dimethylamino)-3,10,12,12a-tetrahydroxy-1,1′-dioxo-1,4,4a,5,5a,6,11,12a-octahydrotetracene-2-carboxamide]	–
–	–	–	–	–	–	–	–	–	–	–	–	–	CN(C)c1cc(CNC2CC3(CC3)C2)c(O)c2c1C[C@H]1C[C@H]3[C@H](N(C)C)C(O)=C(C(N)=O)C(=O)[C@@]3(O)C(O)=C1C2=O [Compound 3, (4S,4aS,5aR,12aS)-9-((spiro[2.3]hexan-5-ylamino)methyl)-4,7-bis(dimethylamino)-3,10,12,12a-tetrahydroxy-1,1′-dioxo-1,4,4a,5,5a,6,11,12a-octahydrotetracene-2-carboxamide]	MIC ([1]; Table 2, agar dilution, read-out: antibacterial activity MIC, Acinetbacter baumannii): 4 µg/mL (≈ 7.06 µM); MIC ([2]; Table 2): 1 µg/mL (≈ 1.76 µM); MIC ([4]; Table 2): 2 µg/mL (≈ 3.53 µM); MIC ([5]; Table 2): 0.5 µg/mL (≈ 0.882 µM); MIC ([6]; Table 2, agar dilution): 0.5 µg/mL (≈ 0.882 µM); MIC [7]: 0.06 µg/mL (≈ 0.106 µM)
4 (≈ 7.06 µM)	0.5 (≈ 0.882 µM)	1 (≈ 1.76 µM)	1 (≈ 1.76 µM)	0.5 (≈ 0.882 µM)	0.5 (≈ 0.882 µM)	–	–	–	–	–	–	–	CN(C)c1cc(CN2CC3(CCC3)C2)c(O)c2c1C[C@H]1C[C@H]3[C@H](N(C)C)C(O)=C(C(N)=O)C(=O)[C@@]3(O)C(O)=C1C2=O [Compound 9, (4S,4aS,5aR,12aS)-9-(2-azaspiro[3.3]heptan-2-ylmethyl)-4,7-bis(dimethylamino)-3,10,12,12a-tetrahydroxy-1,1′-dioxo-1,4,4a,5,5a,6,11,12a-octahydrotetracene-2-carboxamide]	AUC(0-t) ([8]; iv): 6070 ng·h/mL; Vd ([8]; iv): 4.65 L/kg; clearance ([8]; iv): 13.3 mL/min/kg; half-life ([8]; iv): 5.85 h; AUC(0-t) ([8]; po): 216 ng·h/mL; Cmax ([8]; po): 35.6 ng/mL; Tmax ([8]; po): 1 h; bioavailability ([8]; po): 3.56%
1 (≈ 1.66 µM)	1 (≈ 1.66 µM)	1 (≈ 1.66 µM)	1 (≈ 1.66 µM)	0.5 (≈ 0.83 µM)	0.5 (≈ 0.83 µM)	–	–	–	–	–	–	–	CN(C)c1cc(CN2CC3(C2)CC(F)(F)C3)c(O)c2c1C[C@H]1C[C@H]3[C@H](N(C)C)C(O)=C(C(N)=O)C(=O)[C@@]3(O)C(O)=C1C2=O [Compound 16, (4S,4aS,5aR,12aS)-9-((6,6-difluoro-2-azaspiro[3.3]heptan-2-yl)methyl)-4,7-bis(dimethylamino)-3,10,12,12a-tetrahydroxy-1,1′-dioxo-1,4,4a,5,5a,6,11,12a-octahydrotetracene-2-carboxamide]	–
0.25 (≈ 0.459 µM)	1 (≈ 1.84 µM)	0.25 (≈ 0.459 µM)	1 (≈ 1.84 µM)	0.5 (≈ 0.918 µM)	0.5 (≈ 0.918 µM)	–	–	–	–	–	–	–	CN(C)c1cc(CN2CC(F)C2)c(O)c2c1C[C@H]1C[C@H]3[C@H](N(C)C)C(O)=C(C(N)=O)C(=O)[C@@]3(O)C(O)=C1C2=O [Compound 19, (4S,4aS,5aR,12aS)-4,7-bis(dimethylamino)-9-((3-fluoroazetidin-1-yl)methyl)-3,10,12,12a-tetrahydroxy-1,11-dioxo-1,4,4a,5,5a,6,11,12a-octahydrotetracene-2-carboxamide]	–
1 (≈ 1.72 µM)	0.5 (≈ 0.861 µM)	1 (≈ 1.72 µM)	2 (≈ 3.44 µM)	1 (≈ 1.72 µM)	0.5 (≈ 0.861 µM)	–	–	–	–	–	–	–	CN(C)c1cc(CN2CCC3(CC2)CC3)c(O)c2c1C[C@H]1C[C@H]3[C@H](N(C)C)C(O)=C(C(N)=O)C(=O)[C@@]3(O)C(O)=C1C2=O [Compound 20, (4S,4aS,5aR,12aS)-9-(6-azaspiro[2.5]octan-6-ylmethyl)-4,7-bis(dimethylamino)-3,10,12,12a-tetrahydroxy-1,1′-dioxo-1,4,4a,5,5a,6,11,12a-octahydrotetracene-2-carboxamide]	AUC(0-t) ([8]; iv): 11600 ng·h/mL; Vd ([8]; iv): 2.22 L/kg; clearance ([8]; iv): 7.33 mL/min/kg; half-life ([8]; iv): 4.98 h; AUC(0-t) ([8]; po): 605 ng·h/mL; Cmax ([8]; po): 116 ng/mL; Tmax ([8]; po): 2 h; bioavailability ([8]; po): 5.22%
–	–	–	–	–	–	0.5 (≈ 0.861 µM)	0.125 (≈ 0.215 µM)	0.125 (≈ 0.215 µM)	2 (≈ 3.44 µM)	4 (≈ 6.89 µM)	0.5 (≈ 0.861 µM)	0.125 (≈ 0.215 µM)	CN(C)c1cc(CN2CC3C(C2)C3(C)C)c(O)c2c1C[C@H]1C[C@H]3[C@H](N(C)C)C(O)=C(C(N)=O)C(=O)[C@@]3(O)C(O)=C1C2=O (stereo partly drawn) [Compound 27, (4S,4aS,5aR,12aS)-9-((6-dimethyl-3-azabicyclo[3.1.0]hexan-3-yl)methyl)-4,7-bis(dimethylamino)-3,10,12,12a-tetrahydroxy-1,1′-dioxo-1,4,4a,5,5a,6,11,12a-octahydrotetracene-2-carboxamide]	–
–	–	–	–	–	–	1 (≈ 1.72 µM)	0.125 (≈ 0.215 µM)	0.06 (≈ 0.103 µM)	1 (≈ 1.72 µM)	2 (≈ 3.44 µM)	0.5 (≈ 0.861 µM)	0.125 (≈ 0.215 µM)	CN(C)c1cc(CN2CC3CCCC3C2)c(O)c2c1C[C@H]1C[C@H]3[C@H](N(C)C)C(O)=C(C(N)=O)C(=O)[C@@]3(O)C(O)=C1C2=O (stereo partly drawn) [Compound 28, (4S,4aS,5aR,12aS)-4,7-bis(dimethylamino)-9-((hexahydrocyclopenta[c]pyrrol-2(1H)-yl)methyl)-3,10,12,12a-tetrahydroxy-1,1′-dioxo-1,4,4a,5,5a,6,11,12a-octahydrotetracene-2-carboxamide]	–
–	–	–	–	–	–	2 (≈ 3.36 µM)	0.25 (≈ 0.42 µM)	0.125 (≈ 0.21 µM)	1 (≈ 1.68 µM)	4 (≈ 6.73 µM)	1 (≈ 1.68 µM)	0.25 (≈ 0.42 µM)	CN(C)c1cc(CN2CC3CCCCC3C2)c(O)c2c1C[C@H]1C[C@H]3[C@H](N(C)C)C(O)=C(C(N)=O)C(=O)[C@@]3(O)C(O)=C1C2=O (stereo partly drawn) [Compound 29, (4S,4aS,5aR,12aS)-9-((1H-isoindol-2(3H,3aH,4H,5H,6H,7H,7aH)-yl)methyl)-4,7-bis(dimethylamino)-3,10,12,12a-tetrahydroxy-1,11-dioxo-1,4,4a,5,5a,6,11,12a-octahydrotetracene-2-carboxamide]	–
–	–	–	–	–	–	4 (≈ 6.57 µM)	0.5 (≈ 0.821 µM)	0.5 (≈ 0.821 µM)	4 (≈ 6.57 µM)	16 (≈ 26.3 µM)	1 (≈ 1.64 µM)	0.25 (≈ 0.411 µM)	CN(C)c1cc(CN2CCC3CCCCC3C2)c(O)c2c1CC1CC3[C@H](N(C)C)C(O)=C(C(N)=O)C(=O)[C@@]3(O)C(O)=C1C2=O (stereo partly drawn) [Compound c, reference compound]	–
4 (≈ 6.57 µM)	2 (≈ 3.29 µM)	8 (≈ 13.1 µM)	8 (≈ 13.1 µM)	2 (≈ 3.29 µM)	1 (≈ 1.64 µM)	–	–	–	–	–	–	–	CN(C)c1cc(CN2CCC3(CCCC3)CC2)c(O)c2c1CC1CC3[C@H](N(C)C)C(O)=C(C(N)=O)C(=O)[C@@]3(O)C(O)=C1C2=O (stereo partly drawn) [Compound d, reference compound]	–

Compound	MIC [1, 12] [µg/mL]	MIC ([2]; Table 3) [µg/mL]	MIC [3] [µg/mL]	MIC ([4]; Table 3) [µg/mL]	MIC ([5]; Table 3) [µg/mL]	MIC ([6]; Table 3, agar dilution) [µg/mL]	MIC [1, 13] [µg/mL]	MIC [9] [µg/mL]	MIC [10] [µg/mL]	MIC ([2]; Table 4) [µg/mL]	MIC ([4]; Table 4) [µg/mL]	MIC ([6]; Table 4, agar dilution) [µg/mL]	MIC [11] [µg/mL]	other results
CN(C)c1cc(CN2CC3CC(C3)C2)c(O)c2c1C[C@H]1C[C@H]3[C@H](N(C)C)C(O)=C(C(N)=O)C(=O)[C@@]3(O)C(O)=C1C2=O [Compound 24, (4S,4aS,5aR,12aS)-9-(3-azabicyclo[3.1.1]heptan-3-ylmethyl)-4,7-bis(dimethylamino)-3,10,12,12a-tetrahydroxy-1,1′-dioxo-1,4,4a,5,5a,6,11,12a-octahydrotetracene-2-carboxamide]	–	–	–	–	–	–	1 (≈ 1.76 µM)	0.25 (≈ 0.441 µM)	0.25 (≈ 0.441 µM)	1 (≈ 1.76 µM)	2 (≈ 3.53 µM)	0.5 (≈ 0.882 µM)	0.125 (≈ 0.221 µM)	–
